This passage reports IC50 results from ChEMBL document CHEMBL1139932, “Structure-based organic synthesis of unnatural aeruginosin hybrids as potent inhibitors of thrombin” (Bioorg Med Chem Lett, 2007).

The target in this experiment is Prothrombin (Homo sapiens, UniProt P00734). Put plainly: Inhibition of thrombin.
Molecule `CC(C)C[C@@H](NC(=O)[C@H](O)Cc1ccccc1)C(=O)N1[C@H](C(=O)NCCC2=CCN(C(=N)N)C2)C[C@@H]2CCCC[C@@H]21` returned an IC50 of 120 nM.
In the case of `CC(C)C[C@@H](NC(=O)[C@H](O)Cc1ccccc1)C(=O)N1[C@H](C(=O)NCCCCN=C(N)N)C[C@@H]2CC[C@@H](O)C[C@@H]21`, the IC50 is 5600 nM.
Under `CC(C)C[C@@H](NC(=O)[C@H](O)Cc1ccccc1)C(=O)N1[C@H](C(=O)NCCCCN=C(N)N)C[C@@H]2CCCC[C@@H]21` stands 1500 nM.
Under `CC(C)C[C@@H](NC(=O)[C@H](O)Cc1ccccc1)C(=O)N1[C@H](C(=O)NCCC2=CCN(C(=N)N)C2)C[C@@H]2CC[C@@H](O)C[C@@H]21` stands 220 nM.
With `CC[C@@H](C)[C@@H](NC(=O)[C@H](O)Cc1ccccc1)C(=O)N1CCC[C@H]1C(=O)NCc1ccc(C(=N)N)cc1` the figure was 7 nM; with `CC(C)[C@H](Cl)[C@@H](NC(=O)[C@H](O)Cc1ccccc1)C(=O)N1[C@H](C(=O)NCc2ccc(C(=N)N)cc2)C[C@@H]2CCCC[C@@H]21`, 1.6 nM; with `CC[C@H](C)[C@@H](N)C(=O)N1[C@H](C(=O)NCc2ccc(C(=N)N)cc2)C[C@@H]2CCCC[C@@H]21`, 101 nM.
`CC[C@H](C)[C@@H](NC(=O)[C@H](O)Cc1ccccc1)C(=O)N1[C@H](C(=O)NCc2ccc(C(=N)N)cc2)C[C@@H]2CCCC[C@@H]21` had an IC50 of 3.3 nM.
Molecule `N=C(N)c1ccc(CNC(=O)[C@@H]2C[C@@H]3CCCC[C@@H]3N2C(=O)C(NC(=O)[C@H](O)Cc2ccccc2)C2CCCCC2)cc1` (stereo partly specified) gave an IC50 of 3.4 nM. This IC50 and that of the molecule before are within 1.5-fold of each other.
In turn, `CC(C)C[C@@H](NC(=O)[C@H](O)Cc1ccccc1)C(=O)N1[C@H](C(=O)NCc2ccc(C(=N)N)cc2)C[C@@H]2CCCC[C@@H]21` returned a half-inhibitory concentration (IC50) of 97 nM.
`CC(C)[C@H](Cl)[C@@H](NC(=O)[C@H](O)Cc1ccccc1)C(=O)N1[C@H](C(=O)NCCCCN=C(N)N)C[C@@H]2CC[C@@H](O)C[C@@H]21` came in with an IC50 of 310 nM.
`CC[C@H](C)[C@@H](NC(=O)CCc1ccccc1)C(=O)N1[C@H](C(=O)NCc2ccc(C(=N)N)cc2)C[C@@H]2CCCC[C@@H]21` returned an IC50 of 334 nM.
With `CO[C@H](CO)C(=O)N[C@@H](C(=O)N1[C@H](C(=O)NCCC2=CCN(C(=N)N)C2)C[C@@H]2C[C@H](O)[C@@H](O)C[C@@H]21)[C@@H](Cl)C(C)C` the figure was 11 nM; with `CC[C@H](C)[C@@H](NC(C)=O)C(=O)N1[C@H](C(=O)NCc2ccc(C(=N)N)cc2)C[C@@H]2CCCC[C@@H]21`, 786 nM; with `CC[C@H](C)C(NC(=O)OC(C)(C)C)C(=O)N1[C@H](C(=O)NCc2ccc(C(=N)N)cc2)C[C@@H]2CCCC[C@@H]21` (single isomer, unassigned), 171 nM.
Consider `CC[C@H](C)C(NC(=O)[C@@H](C)O)C(=O)N1[C@H](C(=O)NCc2ccc(C(=N)N)cc2)C[C@@H]2CCCC[C@@H]21` (single isomer, unassigned), for which half-maximal inhibition (IC50) required 53 nM.

What is called IC50 is the concentration that inhibits the measured activity by half. A lower IC50 goes with inhibition by little substance.
